For one data set, the system named is Pf (3D7). The experiment in a line: Ligand efficiency metrics (LE, LLE, LELP), selectivity and fold changes. On the set-up: species or system Plasmodium falciparum. The note with it: for drop in potency: Pf (3D7), relative to the comparator compound of the sentence.
A further data set deals with MRC-5 cell line. As to the kind of experiment: Mammalian cell growth inhibition counter-screen (resazurin). In kind it is cell-based, human. The note with it: Homo sapiens, MRC5; supplementary csv; read-out: Hs MRC-5 EC50. How it is done: (§1) Plasmodium falciparum screening
(§2) Assays against P. falciparum were conducted as previously described.1 Cultures of the widely-used malaria reference strain of chloroquine-sensitive Plasmodium falciparum strain 3D7 were maintained in a 5% suspension of human red blood cells (obtained from East of Scotland Blood Transfusion Service, Ninewells Hospital, Dundee) cultured in RPMI 1640 medium (pH 7.3) supplemented with 0.5% Albumax II (Gibco Life Technologies, San Diego, CA), 12 mM sodium bicarbonate, 0.2 mM hypoxanthine and 20 mg/L gentamicin at 37°C, in a humidified atmosphere of 1% O 2, 3% CO2 with a balance of nitrogen. Growth inhibition was quantified using a fluorescence assay utilising the binding of SYBR green to double stranded DNA, which emits a fluorescent signal at 528 nm after excitation at 485nm.2 Mefloquine (potency range 30-60 nM) was used as a drug control to monitor the quality of the assay (Z’ = 0.6 to 0.8, Signal to background >3, where Z’ is a measure of the discrimination between the positive and negative controls on a screen plate). A 96-well [3H]-Hypoxanthine incorporation assay was also developed as a secondary assay in order to validate compounds from the initial screen in an orthogonal platform.3 Compound bioactivity from both assays was expressed as […]
(§3) P. falciparum (panel of resistant strains) in vitro assay. (Swiss TPH)
(§4) All Plasmodium strains were cultured according to Trager and Jensen and are described at www.beiresources.org (resistant strains: K1, W2, 7G8, TM90C2A, D6 and V1/S, sensitive strain:
(§5) NF54). EC50 values were determined in vitro by measuring incorporation of the nucleic acid precursor […]
(§6) Mammalian Cell Growth Inhibition assay
(§7) A counter-screen against normal diploid human fibroblasts (MRC-5 cell line) was carried out to exclude non-selective, and toxic compounds. The assay was essentially carried out as described previously.4 Cells were plated and incubated overnight to allow them to adhere as monolayers. A working stock of each test compound was transferred to an intermediate 384-well plate and pre-diluted with minimum essential media (MEM). The pre-diluted stocks were then transferred onto the cell monolayers, and the plates were incubated for 68 h. Resazurin, to a final concentration of 50 μM, was added to each well, after which plates were incubated for a further 3 h and measured for fluorescence (λex=528 nm, λem=590 nm)
(§8) In vitro Cell Assay Data Analysis.
(§9) All data was processed using IDBS ActivityBase® raw data was converted into per cent inhibition through linear regression by setting the high inhibition control as 100% and the no inhibition control as 0%. Quality control criteria for passing plates were as follows: Z’> 0.5, S:B> 3, %CV(no inhibition < 15 . The formula used to calculate Z’ is 1 3× (St D e v _ hi gh + St D e v _ low) . […]
(§10) All EC50 Curve fitting was undertaken using XLFit version 4.2 using Model 205 with the following 4 parametric equation: y = A + B A A + ($-&) ,where A=% inhibition at bottom, B=% […]
(§11) inhibition at top, C= EC50, D= slope, x= inhibitor concentration and y= % inhibition. […]
(§12) reach 100% of inhibition, B was fixed to 100 only when at least 50% of inhibition was reached.
(§13) Plasmodium falciparum late stage (IV-V) gametocyte high content imaging assay Plasmodium falciparum NF54-pfs16-LUC-GFP stage IV-V Gametocytes were produced as described previously.5 Compounds were solubilized in DMSO and serially diluted in three concentrations per log standard curves in DM SO. One µl of compound was subsequently diluted in 25µl of water (4% DMSO) and 5µl transferred into the base of 384 well PerkinElmer CellCarrier plates. Forty-five µl of stage IV-V gametocytes (10%P in 0.1%H) were added to the imaging plates which were in turn sealed with a gas permeable membrane and incubated at 37°C, 5% CO 2, 5% O2, 90% N2 and 60% humidity […]
(§14) Post incubation, 5µl of MitoTracker® Red CM -H2Xros (MTR) solution (0.66ug/ml) was added to all wells and the plates incubated for a further 16hours. […]
(In general: Counterscreens check selectivity or assay interference.)

Assay in data set [1]: as above
In kind it is cell-based, human. As to conditions: human, MRC-5 cells (normal diploid human fibroblasts). On the procedure:
as §1, §2, §3, §4, §5, §6, §7, §8, §9, §10, §11, §12, §13, §14

Data set [2] is described as follows: Intrinsic clearance (Cli) in mouse liver microsomes. In kind it is in vitro ADME.
Description: as §11, §12, §13
Post incubation, 5µl of MitoTracker® Red CM -H2Xros (MTR) solution (0.66ug/ml) was added to all wells and the plates incubated for a further 16hours. The assay plates were then imaged and the number of viable gametocytes determined for test compounds plus 0.4%DMSO and 5µM Puromycin.
(0.4%DMSO) control values. Percent inhibition was plotted against log compound concentration using a 4 parameter log dose, non-linear regression analysis, with sigmoidal dose response (variable slope) curve fit using Prizm 4.0. IC50 values were obtained from this curve fit. The compound testing was performed in duplicate point within two separate experiments.
Plasmodium berghei ookinete development assay
Assay was performed as previously reported.6 Briefly blood containing P. berghei CTRPp-GFP gametocytes was rapidly harvested from infected mice and introduced to test compounds pre-diluted in ookinete medium (to induce gamete formation and support ookinete development) in 96-well plates. Plates were incubated in the dark at 21°C for 22 hr before GFP fluorescence intensity measured in a plate reader. % inhibition of ookinete formation was calculated with reference to the fluorescence intensity values of a positive control (20 µM cycloheximide) and a solvent-only negative control (DMSO). All assays were performed in triplicate independent experiments and EC50 values calculated in Graphpad Prism.
The aqueous solubility of the test compounds was measured using laser nephelometry, as described previously.7 Compounds were subject to serial dilution from 10 mg/mL to 0.5 mg/mL in DMSO. An aliquot was then mixed with MilliQ water to obtain an aqueous dilution plate with a final concentration range of 100 – 5 μg/mL, with a final DMSO concentration of 1.0%. Triplicate aliquots were transferred to a flat bottomed polystyrene plate which was immediately read on the NEPHELOstar (BMG Lab Technologies). The amount of laser scatter caused by insoluble particulates (relative nephelometry units, RNU) was plotted against compound concentration using a segmental regression fit, with the point of inflection being quoted as the compounds aqueous solubility (μg/mL; […]
Intrinsic Clearance (Cli) experiments
The procedure was carried out as reported previously.7 Test compound (0.5 µM) was incubated with female CD1 mouse, male sprague-dawley rat or pooled human mixed gender liver microsomes (Xenotech LLC TM; 0.5 mg/mL 50 mM potassium phosphate buffer, pH 7.4) and the reaction initiated […]
by the addition of excess NADPH (8 mg/mL 50 mM potassium phosphate buffer, pH 7.4).
Immediately, at time zero, then at 3, 6, 9, 15 and 30 min an aliquot (50 μL) of the incubation mixture was removed and mixed with acetonitrile (100 μL) to stop the reaction. Internal standard was added to all samples, the samples centrifuged to sediment precipitated protein and the plates then sealed prior to UPLC-MS/MS analysis using a Quattro Premier XE (Waters Corporation, USA).
XLfit (IDBS, UK) was used to calculate the exponential decay and consequently the rate constant (k) from the ratio of peak area of test compound to internal standard at each timepoint. The rate of […]
(In general: Microsomes from liver hold many membrane-bound enzymes, among them those of drug oxidation.)

Data set [3] deals with Plasmodium falciparum strain 3D7. As to the kind of experiment: Plasmodium falciparum screening, SYBR green growth inhibition. In kind it is cell-based. On the procedure:
as §1, §2, §3, §4, §5, §6, §7, §8, §9, §10, §11, §12, §13, §14

The test system of the next data set is P. berghei ANKA strain. As to the kind of experiment: In vivo antimalarial efficacy in the P. berghei mouse model (Peter's test). On the set-up: species or system Plasmodium berghei in female NMRI mice. As to conditions: 4 × 10 mg/kg oral, once daily; mice cured / mice in group. How it is done:
Compound 41 was dosed as a bolus solution intravenously at 1 mg free base/kg (dose volume: 5 mL/kg; dose vehicle: 5% DMSO;saline) or by gavage orally as solution at 3 mg free base/kg (dose volume: 10 mL/kg; Dose vehicle: 0.5% w/v hydroxypropylmethylcellulose with 0.4% v/v Tween 80 and 0.5% v/v benzyl alcohol) to male Sprague Dawley rats (n=3/dose route). Blood samples were taken from each rat at 5, 15, 30 min, 1, 2, 4, 6, 8, 24 and 30 h post-dose, mixed with two volumes of distilled water and stored frozen until UPLC/MS/MS analysis.
Pharmacokinetic parameters were derived from the blood concentration time curve for each compound using PKsolutions software v 2.0 (Summit Research Services, USA).
In vivo antimalarial efficacy studies in P. berghei. (Swiss TPH)
In vivo efficacy was conducted as previously described10 with the modification that female NMRI mice (n = 3) were infected with a GFP-transfected P. berghei ANKA strain (donated by A. P. Waters and C. J. Janse, Leiden University, The Netherlands), and parasitaemia determined (96 h after infection) using standard flow cytometry techniques. Compounds 1, 25, 27, 30 and 49 were prepared in 10% DM SO, 40% PEG 400 and 50% water prior to administration orally, once daily for 4 days.
Compounds 40, 41, 43 and 44 were prepared in a non-solubilizing, standard suspension vehicle called HPMC (0.5% [wt/vol] hydroxypropylmethylcellulose, 0.5% [vol/vol] benzyl alcohol, 0.4% [vol/vol] Tween 80, and 0.9% [wt/vol] sodium chloride in water) prior to administration orally, once daily for 4 days. Blood samples were collected on day 4 (96 h after infection) in two volumes water. Animals […]
and then hourly up to 4 h after dosing each day. The animals were selected randomly for each group

Setting [4] is: 3D7, supplementary csv, read-out: Pf (3D7) EC50.

Read-outs that look alike come from different tables or passages of the source.

As to `Cc1ccc(-c2cc(C(=O)Nc3cccnc3)c3cc(Br)ccc3n2)cc1` [Compound 1], the “LLE (ligand-lipophilicity efficiency)” value in the data set with Pf (3D7) is on record as 2.6.

Consider `Cc1ccc(-c2cc(C(=O)NCCCN(C)C)c3cc(Cl)ccc3n2)cc1` [Compound 14, 6-Chloro-N-(3-(dimethylamino)propyl)-2-(p-tolyl)quinoline-4-carboxamide], for which the EC50 in the data set on MRC-5 cell line was 5.55 µM.

As to `Cc1ccc(-c2cc(C(=O)NCCN3CCCCC3)c3cc(Cl)ccc3n2)cc1` [Compound 17], in the data set on MRC-5 cell line, the EC50 is 7.4 µM.

As for `Cc1ccc(-c2cc(C(=O)NCCN3CCCC3)c3cc(F)ccc3n2)cc1` [Compound 19], the “LLE (ligand-lipophilicity efficiency)” value in the data set on Pf (3D7) came to 3.2.

Compound `Cc1cc(Nc2cc(C(=O)NCCN3CCCC3)c3cc(F)ccc3n2)on1` [Compound 20] came in with an EC50 at 68 h in data set [1] above 50 µM.

In data set [1], `O=C(NCCN1CCCC1)c1cc(N2CCn3ccnc3C2)nc2ccc(F)cc12` [Compound 22, 2-(5,6-Dihydroimidazo[1,2-a]pyrazine-7(8H)-yl)-6-fluoro-N-(2-(pyrrolidin-1-yl)ethyl)quinoline-4-carboxamide] yielded an EC50 at 68 h above 50 µM.

`O=C(NCCN1CCCC1)c1cc(N2CCC(N3CCOCC3)CC2)nc2ccc(Cl)cc12` [Compound 24, 6-Chloro-2-(4-morpholinopiperidin-1-yl)-N-(2-(pyrrolidin-1-yl)ethyl)quinoline-4-carboxamide]: in the data set with Pf (3D7), the “LLE (ligand-lipophilicity efficiency)” value turned out to be 4.2.

For `O=C(NCCN1CCCC1)c1cc(NCCN2CCOCC2)nc2ccc(F)cc12` [Compound 26, 6-Fluoro-2-((3-morpholinoethyl)amino)-N-(2-(pyrrolidin-1-yl)ethyl)quinoline-4-carboxamide], the “MLM Cli” value in data set [2] (mouse liver microsomes) is listed as below 0.5 mL/min/g.

Turning to `O=C(NCCN1CCC(F)CC1)c1cc(NCCCN2CCOCC2)nc2ccc(F)cc12` [Compound 31], the EC50 in the data set on MRC-5 cell line amounted to 40.9 µM.

As to `O=C(NCCN1CCOCC1)c1cc(NCCCN2CCOCC2)nc2ccc(F)cc12` [Compound 32], in the data set on MRC-5 cell line, the EC50 was above 50 µM.

Consider `O=C(NCCN1CCC(F)(F)CC1)c1cc(NCCCN2CCOCC2)nc2ccc(F)cc12` [Compound 33], for which the EC50 in the data set with MRC-5 cell line is above 50 µM.

Turning to `O=C(NCCN1CCCC(F)(F)C1)c1cc(NCCCN2CCOCC2)nc2ccc(F)cc12` [Compound 34], the EC50 with MRC-5 cell line is above 50 µM.

Consider `O=C(NCCN1CCC(F)(F)C1)c1cc(NCCCN2CCOCC2)nc2ccc(F)cc12` [Compound 35], for which the EC50 with MRC-5 cell line was above 50 µM.

For the compound `O=C(NCCN1CCCC1)c1cc(-c2cccc(CN3CCOCC3)c2)nc2ccc(F)cc12` [Compound 45], the EC50 in data set [3] (setting [4]) was determined as 10400 nM.

For the compound `O=C(NCCN1CCOCC1)c1cc(-c2ccc(CN3CCOCC3)cc2)nc2ccc(F)cc12` [Compound 46], the “MLM Cli” value in data set [2] (mouse liver microsome) is below 0.5 mL min^–1 g^–1. This compound showed a drop in potency in the data set with Pf (3D7) of 12 fold.

For `CN(CCN1CCCC1)C(=O)c1cc(-c2ccc(CN3CCOCC3)cc2)nc2ccc(F)cc12` [Compound 47, 6-Fluoro-N-methyl-2-(4-(morpholinomethyl)phenyl)-N-(2-(pyrrolidin-1-yl)ethyl)quinoline-4-carboxamide], the “MLM Cli” value in data set [2] (mouse liver microsome) is below 0.5 mL min^–1 g^–1. The same compound displayed a drop in potency in the data set with Pf (3D7) of 87 fold.

On to `O=C(NCCNC1CC1)c1cc(-c2ccc(CN3CCOCC3)cc2)nc2ccc(F)cc12` [Compound 48, N-(2-(Cyclopropylamino)ethyl)-6-fluoro-2-(4-(morpholinomethyl)phenyl)quinoline-4-carboxamide], for which the EC50 in data set [3] (setting [4]) is 2.4 nM. Also, the “MLM Cli” value in data set [2] (mouse liver microsome) is listed as 2 mL min^–1 g^–1.

Turning to `O=C(NCCN1CCC1)c1cc(-c2ccc(CN3CCOCC3)cc2)nc2ccc(F)cc12` [Compound 49, N-(2-(Azetidin-1-yl)ethyl)-6-fluoro-2-(4-(morpholinomethyl)phenyl)quinoline-4-carboxamide], the “MLM Cli” value in data set [2] (mouse liver microsome) is on record as 0.5 mL min^–1 g^–1. Further, in the data set with P. berghei ANKA strain, the cure was 1/3.

Take `OC(c1cc(C(F)(F)F)nc2c(C(F)(F)F)cccc12)C1CCCCN1` (centres unmarked) [Mefloquine, reference compound]: the EC50 in data set [3] (3D7, quality control of the assay, read-out: potency range (drug control)) is 30 to 60 nM.

These data come from paper PMC5108032, “Discovery of a Quinoline-4-carboxamide Derivative with a Novel Mechanism of Action, Multistage Antimalarial Activity, and Potent in Vivo Efficacy” (Journal of Medicinal Chemistry, 2016).
